As a reminder, the MIC is the lowest concentration found to suppress growth.

In brackets after ≈: the same amount, converted by molar mass. Activity calls are given as the source filed them. The rule behind the calls is not given here.

Data set [1] relates to Aspergillus fumigatus. Kind of data set: Antimicrobial activity against Aspergillus fumigatus ATCC 204305 measured after 72 hrs by serial dilution assay. It counts as functional.
For data set [2], the system named is Aspergillus fumigatus. As to the kind of experiment: Antimicrobial activity against azole-resistant Aspergillus fumigatus CCF 6674 measured after 72 hrs by serial dilution assay. It counts as functional.
Data set [3] has as its system Staphylococcus aureus. Kind of data set: Antimicrobial activity against Staphylococcus aureus DSM 346 up to 67 ug/ml measured after 72 hrs by serial dilution assay. The format is functional, organism-based. As to conditions: dose <= 67.0 µg/ml.
Data set [4] has as its system Aspergillus fumigatus. Kind of data set: Antimicrobial activity against azole-resistant Aspergillus fumigatus CCF 6651 up to 67 ug/ml measured after 72 hrs by serial dilution assay. The format is functional, organism-based. The note with it: dose <= 67.0 µg/ml.
Data set [5] deals with Candida albicans. As to the kind of experiment: Antimicrobial activity against Candida albicans CCM 8215 up to 67 ug/ml measured after 12 hrs by serial dilution assay. The format is functional, organism-based. As to conditions: dose <= 67.0 µg/ml.
Data set [6] deals with Cryptococcus neoformans. Kind of data set: Antimicrobial activity against Cryptococcus neoformans CCF 1081 up to 67 ug/ml measured after 48 hrs by serial dilution assay. As to conditions: dose <= 67.0 µg/ml. The format is functional, organism-based.
Data set [7] concerns Mucor plumbeus. Kind of data set: Antimicrobial activity against Mucor plumbeus CCF 2612 up to 67 ug/ml measured after 48 hrs by serial dilution assay. The format is functional, organism-based. The note with it: dose <= 67.0 µg/ml.
Data set [8] concerns Rhodotorula glutinis. Kind of data set: Antimicrobial activity against Rhodotorula glutinis DSM 10134 up to 67 ug/ml measured after 72 hrs by serial dilution assay. It counts as functional, organism-based. As to conditions: dose <= 67.0 µg/ml.
Data set [9] has as its system Caenorhabditis elegans. As to the kind of experiment: Nematicidal activity against Caenorhabditis elegans at 10 to 100 ug/ml incubated for 18 hrs by stereomicroscopic analysis. It counts as functional, organism-based. As to conditions: dose 10-100 µg/ml.
Data set [10] concerns Staphylococcus aureus. As to the kind of experiment: Antimicrobial activity against Staphylococcus aureus DSM 346 measured after 72 hrs by serial dilution assay. It counts as functional.
The test system of data set [11] is Aspergillus fumigatus. As to the kind of experiment: Antimicrobial activity against Aspergillus fumigatus CCF 3522 measured after 48 hrs by serial dilution assay. It counts as functional.
In data set [12] the test system is Aspergillus fumigatus. Kind of data set: Antimicrobial activity against azole-resistant Aspergillus fumigatus CCF 6651 measured after 72 hrs by serial dilution assay. The format is functional.
The subject of data set [13] is Cryptococcus neoformans. Kind of data set: Antimicrobial activity against Cryptococcus neoformans CCF 1081 measured after 48 hrs by serial dilution assay. It counts as functional.
Data set [14] has as its system Rhodotorula glutinis. As to the kind of experiment: Antimicrobial activity against Rhodotorula glutinis DSM 10134 measured after 72 hrs by serial dilution assay. The format is functional.
Data set [15] relates to L929. Kind of data set: Cytotoxicity against mouse L929 cells by MTT assay. The format is toxicity, cell-based. For orientation: Tetrazolium assays rely on reduction of a dye to a coloured formazan, in cell work by metabolically active cells.
Data set [16] concerns KB 3-1. Kind of data set: Cytotoxicity against human KB-3-1 cells by MTT assay. The format is functional, cell-based.
The test system of data set [17] is Mucor plumbeus. As to the kind of experiment: Antimicrobial activity against Mucor plumbeus CCF 2612 measured after 48 hrs by serial dilution assay. The format is functional.
Data set [18] has as its system Candida albicans. As to the kind of experiment: Antimicrobial activity against Candida albicans CCM 8215 measured after 12 hrs by serial dilution assay. It counts as functional.

With `CC[C@H](C)[C@H](O)[C@@H](C)/C=C(C)/C=C/C[C@H](C)[C@H](O)[C@@H](C)/C=C(C)/C=C/[C@H](O)C(C)(C)c1cc(O)c([C@H]2O[C@@H](CO)C[C@@H](O)[C@@H]2O)c(=O)o1`, the values for the MIC in [1] and in data set [2] were 0.26 µg/mL (≈ 0.384 µM) and 16.6 µg/mL (≈ 24.5 µM), respectively. Moreover, the result in [3], in data set [4], in data set [5], in data set [6], in data set [7] and in [8] was inactive. In addition, the outcome in [9] was inactive.
Turning to `CC[C@H](C)C[C@@H](C)/C=C(C)/C=C/C[C@H](C)[C@H](O)[C@@H](C)/C=C(C)/C=C/[C@H](O)C(C)(C)c1cc(O)c([C@H]2O[C@@H](CO)C[C@@H](O)[C@@H]2O)c(=O)o1`, the MIC in data set [10] turned out to be 66.6 µg/mL (≈ 101 µM); in data set [1] it was 0.52 µg/mL (≈ 0.787 µM); in data set [11], 0.52 µg/mL (≈ 0.787 µM); in data set [12] it was 2.08 µg/mL (≈ 3.15 µM); in data set [2], 0.52 µg/mL (≈ 0.787 µM); in data set [13] it was 4.15 µg/mL (≈ 6.28 µM). The molecule also yielded an MIC in data set [14] of 8.3 µg/mL (≈ 12.6 µM). For the same molecule, the result in data set [5], in data set [7] and in data set [9] was inactive.
As to `COc1cc2c(c(O)c1/C=C/C(C)=O)C(=O)CC[C@H]2O`, the outcome in data set [3], in [8] and in [9] was inactive. Moreover, the Activity entry in data set [15] is reported as “Toxic”. Moreover, in [16], the outcome was Active.
Turning to `COc1cc2c(c(O)c1Cc1c(O)c(O)c3cc(C)oc(=O)c3c1O)C(=O)CC[C@H]2O`, the result in data set [3], in [8] and in data set [9] was inactive. Also, the Activity entry in data set [15] is reported as “Toxic”. The result in data set [16] was Active.
As for `COc1cc2c(c(O)c1CO)C(=O)CC[C@H]2O`, the outcome in [3], in [8], in [16] and in [9] was inactive. In [15], the Activity result is “Non-Toxic”.
Turning to `C[C@@H]1[C@H](O)[C@@H](C)/C=C/C=C/C=C/C=C/C=C/C=C/C=C/[C@H](O[C@@H]2O[C@H](C)[C@@H](O)[C@H](N)[C@@H]2O)C[C@@H]2O[C@](O)(C[C@@H](O)C[C@@H](O)[C@H](O)CC[C@@H](O)C[C@@H](O)CC(=O)O[C@H]1C)C[C@H](O)[C@H]2C(=O)O` [AMPHOTERICIN B], the MIC was found to be 0.31 µg/mL (≈ 0.335 µM) in data set [1]; 0.31 µg/mL (≈ 0.335 µM) in [11]; 0.16 µg/mL (≈ 0.173 µM) in data set [12]; 2.5 µg/mL (≈ 2.71 µM) in data set [2]; 2.5 µg/mL (≈ 2.71 µM) in data set [13]; 0.31 µg/mL (≈ 0.335 µM) in data set [17].
In data set [10], GENTAMICIN gave an MIC of 0.21 µg/mL.
On to NYSTATIN, for which the MIC in [14] is 4.2 µg/mL.
Consider `CC[C@H](C)C[C@@H](C)/C=C(C)/C=C/C[C@H](C)[C@H](O)[C@@H](C)/C=C(C)/C=C/[C@H](O)[C@@H](C)c1cc(O)c([C@H]2O[C@@H](CO)C[C@@H](O)[C@@H]2O)c(=O)o1`, for which the MIC in data set [1] stood at 8.32 µg/mL (≈ 12.9 µM); in data set [12], 0.52 µg/mL (≈ 0.804 µM); in data set [2], 0.52 µg/mL (≈ 0.804 µM); in [18], 8.3 µg/mL (≈ 12.8 µM); in data set [13] it was 4.15 µg/mL (≈ 6.42 µM); in data set [17], 1.04 µg/mL (≈ 1.61 µM).

These data come from ChEMBL document CHEMBL5584268, “Dactylfungins and Tetralones: Bioactive Metabolites from a Nematode-Associated Laburnicola nematophila” (J Nat Prod, 2024).
